Results: patent US9789114B2, “Compounds as HIF-1α inhibitors and manufacturing process thereof” (DONGGUK UNIVERSITY INDUSTRY-ACADEMIC COOPERATION FOUNDATION, priority 2011, dated 2017)

System: HIF-1α-mediated HRE transcriptional activity
Test: Assay for inhibition of HIF-1α-mediated transcriptional activity (HRE reporter assay)
Format: cell-based, human
Details: 12 hours under hypoxia (1% O2); for inhibition at 10 µM: Homo sapiens, HCT-116, HCT116 cells, read-out: Inhibitory activity against HIF-1α (10 μM)
Experimental: <Experiment 1> Assay for Inhibition of HIF-1α-Mediated Transcriptional Activity (HRE Reporter Assay)
The compounds can be developed as anti-cancer drugs, because the compounds inhibiting HIF-1α-mediated HRE transcriptional activity induced by hypoxia can suppress the growth and metastasis of cancer.
Inhibitory effects of the compounds according to the present invention, from Formula I-1 to I-42, on HIF-1α-mediated transcriptional activity were evaluated using this assay. pGL3-HRE-luciferase vector was constructed as follows. Six copies of HRE (Hypoxia Responsive Element, 5′-ACGTG-3′) from human VEGF genes were inserted into the multi-cloning site of a pGL3-basic vector (Promega). A luciferase gene was used as a reporter gene.
In detail, HCT116(ATCC #CCL-247) human colon cancer cells were seeded in 48-well cell culture plates. The cells were co-transfected with 25 ng of pGL3-HRE-luciferase and 2.5 ng of Renila control vectors using Polyfect reagent next day. After 24 hours of incubation, the cells were incubated for an additional 4 hours with replaced cell culture media. The cells were treated with various concentrations (0, 1, 3, 5, 10, and 20 μM) of the above compounds according to the present invention and incubated for 12 hours under hypoxia (1% O2, 94% N2, and 5% CO2). The luciferase assay was performed using a dual-luciferase reporter assay system (Promega). After cell lysate preparation with RIPA buffer, induced luciferase activity under hypoxic conditions was determined to examine inhibitory effects of the compounds according to the present invention, from Formula I-1 to I-42, on HIF-1α-mediated transcriptional activity.

O=C(COc1ccc(C23CC4CC(CC(C4)C2)C3)cc1)NC12CC3CC(CC(C3)C1)C2 [Compound I-40, N-(adamantan-1-yl)-2-(4-(adamantan-1-yl)phenoxy)acetamide]
inhibition at 10 µM: 1 to 25%

Cc1cc(C23CC4CC(CC(C4)C2)C3)ccc1OCC(=O)NCC[N+](C)(C)C [Compound I-17, 2-(2-(4-(Adamantan-1-yl)-2-methylphenoxy)acetamido)-N,N,N-trimethylethanaminium iodide]
inhibition at 10 µM: 26 to 50%

CN1CCN(c2ccc(NC(=O)COc3ccc(C45CC6CC(CC(C6)C4)C5)cc3)cc2)CC1 [Compound I-37, 2-(4-(Adamantan-1-yl)phenoxy)-N-(4-(4-methylpiperazin-1-yl)phenyl)acetamide]
inhibition at 10 µM: 1 to 25%

CN(C)CCNC(=O)CCOc1ccc(C23CC4CC(CC(C4)C2)C3)cc1 [Compound I-10, 3-(4-(Adamantan-1-yl)phenoxy)-N-(2-(dimethylamino)ethyl)propanamide]
inhibition at 10 µM: 26 to 50%

CN1CCN(C(=O)COc2ccc(C34CC5CC(CC(C5)C3)C4)cc2)CC1.Cl [Compound I-4, 4-(2-(4-(Adamantan-1-yl)phenoxy)acetyl)-1-methylpiperazin-1-ium chloride]
Inhibitory activity against HIF-1α (10 μM) (HCT116 cells): A (A(76˜100%))

C[N+]1(C)CCN(C(=O)CCOc2ccc(C34CC5CC(CC(C5)C3)C4)cc2)CC1 [Compound I-18, 4-(3-(4-(Adamantan-1-yl)phenoxy)propanoyl)-1,1-dimethylpiperazin-1-ium iodide]
inhibition at 10 µM: 26 to 50%

O=C(COc1ccc(C23CC4CC(CC(C4)C2)C3)cc1)NC1CC1 [Compound I-2, 2-(4-(Adamantan-1-yl)phenoxy)-N-cyclopropylacetamide]
inhibition at 10 µM: 76 to 100%

C[C@@H]1CNCCN1C(=O)COc1ccc(C23CC4CC(CC(C4)C2)C3)cc1 [Compound I-34, 2-(4-(Adamantan-1-yl)phenoxy)-1-((R)-2-methylpiperazin-1-yl)ethanone]
inhibition at 10 µM: 51 to 75%

C#CCN1CCN(C(=O)COc2ccc(C34CC5CC(CC(C5)C3)C4)cc2)CC1 [Compound I-36, 2-(4-(Adamantan-1-yl)phenoxy)-1-(4-(prop-2-yn-1-yl)piperazin-1-yl)ethanone]
inhibition at 10 µM: 51 to 75%

Cc1cc(C23CC4CC(CC(C4)C2)C3)ccc1OCCC(=O)N1CC[N+](C)(C)CC1 [Compound I-20, 4-(3-(4-(Adamantan-1-yl)-2-methylphenoxy)propanoyl)-1,1-dimethylpiperazin-1-ium iodide]
inhibition at 10 µM: 76 to 100%

Cc1cc(C23CC4CC(CC(C4)C2)C3)ccc1OCCC(=O)NCC[N+](C)(C)C [Compound I-21, 2-(3-(4-(Adamantan-1-yl)-2-methylphenoxy)propanamido)-N,N,N-trimethylethanaminium iodide]
inhibition at 10 µM: 26 to 50%

O=C(COc1ccc(C23CC4CC(CC(C4)C2)C3)cc1)N1CCN(Cc2ccc(C(F)(F)F)cc2)CC1 [Compound I-27, 2-(4-(Adamantan-1-yl)phenoxy)-1-(4-(4-(trifluoromethyl)benzyl)piperazin-1-yl)ethanone]
inhibition at 10 µM: 76 to 100%

C[N+]1(C)CCN(C(=O)COc2ccc(C34CC5CC(CC(C5)C3)C4)cc2)CC1 [Compound I-15, 4-(2-(4-(Adamantan-1-yl)phenoxy)acetyl)-1,1-dimethylpiperazine-1-ium iodide]
inhibition at 10 µM: 26 to 50%

O=C(CCOc1ccc(C23CC4CC(CC(C4)C2)C3)cc1)N1CCOCC1 [Compound I-9, 3-(4-(Adamantan-1-yl)phenoxy)-1-morpholinopropan-1-one]
inhibition at 10 µM: 76 to 100%

O=C(COc1ccc(C23CC4CC(CC(C4)C2)C3)cc1)N1CCNCC1 [Compound I-30, 2-(4-(Adamantan-1-yl)phenoxy)-1-(piperazin-1-yl)ethanone]
inhibition at 10 µM: 76 to 100%

O=C(COc1ccc(C23CC4CC(CC(C4)C2)C3)cc1)N1CCN(CCO)CC1 [Compound I-35, 2-(4-(Adamantan-1-yl)phenoxy)-1-(4-(2-hydroxyethyl)piperazin-1-yl)ethanone]
inhibition at 10 µM: 26 to 50%

CC(C)(C)OC(=O)N1CCN(C(=O)COc2ccc(C34CC5CC(CC(C5)C3)C4)cc2)CC1 [Compound I-29, tert-Butyl 4-(2-(4-(adamantan-1-yl)phenoxy)acetyl)piperazine-1-carboxylate]
inhibition at 10 µM: 51 to 75%

O=C(COc1ccc(C23CC4CC(CC(C4)C2)C3)cc1)NCc1ccco1 [Compound I-26, 2-(4-(Adamantan-1-yl)phenoxy)-N-(furan-2-ylmethyl)acetamide]
inhibition at 10 µM: 76 to 100%

CN1CCN(C(=O)CCCOc2ccc(C34CC5CC(CC(C5)C3)C4)cc2)CC1 [Compound I-14, 4-(4-(Adamantan-1-yl)phenoxy)-1-(4-methylpiperazin-1-yl)butan-1-one]
inhibition at 10 µM: 51 to 75%

CN1CCN(C(=O)COc2ccc(C34CC5CC(CC(C5)C3)C4)cc2Cl)CC1 [Compound I-42, 2-(4-(Adamantan-1-yl)-2-chlorophenoxy)-1-(4-methylpiperazin-1-yl)ethanone]
inhibition at 10 µM: 51 to 75%

O=C(COc1ccc(C23CC4CC(CC(C4)C2)C3)cc1)N1CCn2c(nnc2C(F)(F)F)C1 [Compound I-39, 2-(4-(Adamantan-1-yl)phenoxy)-1-(3-(trifluoromethyl)-5,6-dihydro-[1,2,4]triazolo[4,3-a]pyrazin-7(8H)-yl)ethanone]
inhibition at 10 µM: 26 to 50%

Cc1cc(C23CC4CC(CC(C4)C2)C3)ccc1OCC(=O)N1CCN(C)CC1 [Compound I-5, 2-(4-(Adamantan-1-yl)-2-methylphenoxy)-1-(4-methylpiperazin-1-yl)ethanone]
inhibition at 10 µM: 76 to 100%

C[C@H]1CNCCN1C(=O)COc1ccc(C23CC4CC(CC(C4)C2)C3)cc1 [Compound I-32, 2-(4-(Adamantan-1-yl)phenoxy)-1-((S)-2-methylpiperazin-1-yl)ethanone]
inhibition at 10 µM: 76 to 100%

CN1CCN(C(=O)COc2ccc(C34CC5CC(CC(C5)C3)C4)cc2F)CC1 [Compound I-25, 2-(4-(Adamantan-1-yl)-2-fluorophenoxy)-1-(4-methylpiperazin-1-yl)ethanone]
inhibition at 10 µM: 51 to 75%

CC(C)N1CCN(C(=O)COc2ccc(C34CC5CC(CC(C5)C3)C4)cc2)CC1 [Compound I-28, 2-(4-(Adamantan-1-yl)phenoxy)-1-(4-isopropylpiperazin-1-yl)ethanone]
inhibition at 10 µM: 51 to 75%

Cc1cc(C23CC4CC(CC(C4)C2)C3)ccc1OCCC(=O)N1CCOCC1 [Compound I-12, 3-(4-(Adamantan-1-yl)-2-methylphenoxy)-1-morpholinopropan-1-one]
inhibition at 10 µM: 76 to 100%

Cc1cc(C23CC4CC(CC(C4)C2)C3)ccc1OCCC(=O)N1CCN(C)CC1 [Compound I-11, 3-(4-(Adamantan-1-yl)-2-methylphenoxy)-1-(4-methylpiperazin-1-yl)propan-1-one]
inhibition at 10 µM: 76 to 100%

O=C(COc1ccc(C23CC4CC(CC(C4)C2)C3)cc1)NC12CC3CC(CC(O)(C3)C1)C2 [Compound I-41, 2-(4-(Adamantan-1-yl)phenoxy)-N-(3-hydroxyadamantan-1-yl)acetamide]
inhibition at 10 µM: 76 to 100%

C[C@H]1CN(C(=O)OC(C)(C)C)CCN1C(=O)COc1ccc(C23CC4CC(CC(C4)C2)C3)cc1 [Compound I-31, (S)-tert-Butyl 4-(2-(4-(adamantan-1-yl)phenoxy)acetyl)-3-methylpiperazine-1-carboxylate]
inhibition at 10 µM: 76 to 100%

Cc1cc(C23CC4CC(CC(C4)C2)C3)ccc1OCC(=O)NCCN(C)C [Compound I-7, 2-(4-(Adamantan-1-yl)-2-methylphenoxy)-N-(2-(dimethylamino)ethyl)acetamide]
inhibition at 10 µM: 51 to 75%

Cc1cc(C23CC4CC(CC(C4)C2)C3)ccc1OCCC(=O)NCCN(C)C [Compound I-13, 3-(4-(Adamantan-1-yl)-2-methylphenoxy)-N-(2-(dimethylamino)ethyl)propanamide]
inhibition at 10 µM: 51 to 75%

CN(C)C(=O)COc1ccc(C23CC4CC(CC(C4)C2)C3)cc1 [Compound I-1, 2-(4-(Adamantan-1-yl)phenoxy)-N,N-dimethylacetamide]
inhibition at 10 µM: 51 to 75%

C[C@@H]1CN(C(=O)OC(C)(C)C)CCN1C(=O)COc1ccc(C23CC4CC(CC(C4)C2)C3)cc1 [Compound I-33, (R)-tert-Butyl 4-(2-(4-(Adamantan-1-yl)phenoxy)acetyl)-3-methylpiperazine-1-carboxylate]
inhibition at 10 µM: 76 to 100%

O=C(COc1ccc(C23CC4CC(CC(C4)C2)C3)cc1)Nc1ccc(N2CCS(=O)(=O)CC2)cc1 [Compound I-38, 2-(4-(Adamantan-1-yl)phenoxy)-N-(4-(1,1-dioxidothiomorpholino)phenyl)acetamide]
inhibition at 10 µM: 51 to 75%
